Experimental data from PMC6211316, “Synthesis and biological evaluation of 3-arylcoumarin derivatives as potential anti-diabetic agents” (Journal of Enzyme Inhibition and Medicinal Chemistry, 2018).

Tested on: not listed separately
Experiment: DPPH free radical scavenging
Settings: mean ± SD (n = 3)
Description: The effect of target compounds and vitamin C to scavenge the DPPH free radical was evaluated with the method described by Villano et al.[43] with slight modifications.
Two millilitres of different concentrations of the sample solution was added to 2.0 ml of DPPH solution (0.04 mg/mL), shaken and allowed to react at room temperature for 30 min. The absorbance value was measured at 517 nm with an ultraviolet-visible spectrophotometer. The blank reference cuvette contained absolute ethanol. All measurements were performed in triplicate. IC50 values were calculated. The percentage of DPPH radical scavenging rate of the target compound is calculated as follows: DPPH free radical scavenging effect (%)=[A0−(A1−A2)]/A0×100% where A0 is the absorbance of 2.0 ml DPPH solution +2.0 ml absolute ethanol; A1 is the absorbance of 2.0 ml DPPH solution +2.0 ml 3-arylcoumarins solution or standard; A2 is the absorbance of 2.0 ml 3-arylcoumarins solution or standard +2.0 ml absolute ethanol.

SMILES | IC50 [µM]
Cc1ccc(C)c(-c2cc3ccc(O)c(O)c3oc2=O)c1 [Compound 33, 7,8-Dihydroxy-3-(2,5-dimethylphenyl)-coumarin] | 2.98 ± 0.03
COc1ccc(-c2cc3ccc(O)cc3oc2=O)cc1 [Compound 24, 7-Hydroxy-3-(4-methoxyphenyl)-coumarin] | 53.9 ± 1.83
COc1ccc(-c2cc3cccc(O)c3oc2=O)cc1 [Compound 22, 8-Hydroxy-3-(4-methoxyphenyl)-coumarin] | 15.63 ± 0.11
O=c1oc2ccccc2cc1-c1ccc(O)cc1 [Compound 6, 3-(4-Hydroxyphenyl)-coumarin] | > 1000

Tested on: not listed separately
Experiment: hydroxyl radical scavenging
Settings: mean ± SD (n = 3), read-out: OH IC50 Value
Description: The ability of the target compounds and vitamin C to scavenge the hydroxyl radical was evaluated with method described by Ismaili et al.[29] with slight modifications. In test tube, 1.0 ml H2O2 solution (0.03%), 1.0 ml FeSO4 solution (2 mmol.L^−1), 1.0 ml salicylic acid solution (10 mmol.L^−1) and 1.0 ml of 3-arylcoumarins and standard water solution with different concentration (0.4–2.0 mg/mL) were mixed. Finally, 1.0 ml H2O2 solution (0.03%) was added to this mixture to start the reaction. Solutions were kept at 37 °C. After 30 min, the absorbance was measured at 510 nm against the reagent blank, where the distilled water was substituted for the H2O2 solution. The percentage of OH scavenging by target compounds and vitamin C was calculated the following equation: OH scavenging effect (%)=[A0−(A1−A2)]/A0×100% where A0 is the absorbance of 1.0 ml distilled water +1.0 ml H2O2 + 1.0 ml FeSO4 + 1.0 ml salicylic acid +1.0 ml H2O2; A1 is the absorbance of 1.0 ml 3-arylcoumarins or standard +1.0 ml H2O2 + 1.0 ml FeSO4 + 1.0 ml salicylic acid +1.0 ml H2O2; A2 is the absorbance of 1.0 ml 3-arylcoumarins or standard +1.0 ml H2O2 + 1.0 ml FeSO4 + 1.0 ml absolute absolute ethanol +1.0 ml H2O2.

SMILES | IC50 [µM]
Cc1ccc(C)c(-c2cc3ccc(O)c(O)c3oc2=O)c1 [Compound 33, 7,8-Dihydroxy-3-(2,5-dimethylphenyl)-coumarin] | 903 ± 41.9
COc1ccc(-c2cc3ccc(O)cc3oc2=O)cc1 [Compound 24, 7-Hydroxy-3-(4-methoxyphenyl)-coumarin] | > 1000
COc1ccc(-c2cc3cccc(O)c3oc2=O)cc1 [Compound 22, 8-Hydroxy-3-(4-methoxyphenyl)-coumarin] | > 1000
O=c1oc2ccccc2cc1-c1ccc(O)cc1 [Compound 6, 3-(4-Hydroxyphenyl)-coumarin] | > 1000

Molecular target: T1, α-Glucosidase (Saccharomyces cerevisiae, UniProt P53341)
T1 construct: purchased Sigma Aldrich G0660-750UN
T1 sequence (P53341 whole entry): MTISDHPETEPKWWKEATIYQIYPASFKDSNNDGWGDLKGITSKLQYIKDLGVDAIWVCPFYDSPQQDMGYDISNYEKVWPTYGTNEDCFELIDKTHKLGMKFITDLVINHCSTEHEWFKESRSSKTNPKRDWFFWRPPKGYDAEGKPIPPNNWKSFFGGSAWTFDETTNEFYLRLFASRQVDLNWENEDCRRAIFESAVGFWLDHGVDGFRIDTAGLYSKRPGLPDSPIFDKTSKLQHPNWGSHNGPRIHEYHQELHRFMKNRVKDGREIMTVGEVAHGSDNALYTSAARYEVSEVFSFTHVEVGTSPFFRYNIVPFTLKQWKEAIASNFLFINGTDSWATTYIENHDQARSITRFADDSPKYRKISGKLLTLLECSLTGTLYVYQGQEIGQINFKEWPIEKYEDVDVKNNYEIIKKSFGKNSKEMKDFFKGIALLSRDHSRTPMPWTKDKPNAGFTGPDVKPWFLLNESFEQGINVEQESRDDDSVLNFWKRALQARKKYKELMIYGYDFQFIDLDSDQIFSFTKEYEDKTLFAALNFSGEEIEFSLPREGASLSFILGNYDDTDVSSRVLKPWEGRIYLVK
Experiment: biochemical
Type: biochemical
Settings: not given
Description: α-Glucosidase (G0660-750UN, Sigma Aldrich) and 4-Nitrophenyl α-D-glucopyranoside (PNPG, Macklin) were dissolved in phosphate buffer (pH 6.8, 100 mM), and the test compounds were dissolved in DMSO solution. The experiment was divided into blank group, control group, sample blank group, and sample group. The reagents were loaded in 96-well plates at the dose of the table (Table 8). The solution was bathed in 37 °C water for 10 min, and then enzyme solution was added. After reaction at 37 °C for 20 min, 70 μL Na2CO3 solution ([…]) was added to stop the reaction. All experiments were run in triplicate. […] Since PNPG can produce glucose and p-Nitrophenol (PNP) under the action of α-glucosidase, PNP has the greatest absorption at 405 nm. The absorbance was determined by the microplate reader, and the inhibition rate of α-glucosidase and the IC50 value of each sample were calculated according to the formula. Inhibition rate %={[(AC−AB)−(AS−ASB)]/(AC−AB)}×100% where AC is the absorbance of control group; AB is the absorbance of blank group; AS is the absorbance of sample group; ASB is the absorbance of sample blank group.

SMILES | IC50 [µM]
Cc1ccc(C)c(-c2cc3ccc(O)c(O)c3oc2=O)c1 [Compound 33, 7,8-Dihydroxy-3-(2,5-dimethylphenyl)-coumarin] | > 1000
COc1ccc(-c2cc3cccc(O)c3oc2=O)cc1 [Compound 22, 8-Hydroxy-3-(4-methoxyphenyl)-coumarin] | > 1000

Same assay, conditions: mean ± SD (n = 3); read-out: α-Glucosidase inhibitory activity IC50 Value

IC50 [µM] | SMILES
27.42 ± 0.11 | COc1ccc(-c2cc3ccc(O)cc3oc2=O)cc1 [Compound 24, 7-Hydroxy-3-(4-methoxyphenyl)-coumarin]
60.88 ± 0.55 | O=c1oc2ccccc2cc1-c1ccc(O)cc1 [Compound 6, 3-(4-Hydroxyphenyl)-coumarin]

Tested on: AGEs formation
Experiment: In vitro inhibitory activity of AGEs formation (bovine serum albumin/glucose)
Type: biochemical
Settings: mean ± SD (n = 3)
Description: To prepare the AGEs reaction solution, 10 mg/mL of bovine serum albumin in 50 mM PBS (pH 7.4) was added to 0.2 M glucose, and 0.02% sodium azide was added to prevent bacterial growth. The reaction mixture (3.0 ml) was then mixed with various concentrations (0.5–1000 μg/mL) of the target compounds (1.0 ml) dissolved in DMSO. After incubating at 37 °C for 14 d, the fluorescence intensity of AGE was determined by a fluorospectrophotometer (PE, USA) with excitation and emission wavelengths at 350 nm and 420 nm, respectively. All experiments were run in triplicate. Aminoguanidine hydrochloride was used as a reference compound. The inhibition rate of AGEs formation and the IC50 value of each sample were calculated according to the formula. Inhibition rate %={[(AC−AB)−(AS−ASB)]/(AC−AB)}×100% where AC is the absorbance of control group(1.0 ml glucose +1.0 ml bovine serum albumin +1.0 ml sodium azide +1.0 ml DMSO); AB is the absorbance of blank group(1.0 ml PBS +1.0 ml bovine serum albumin +1.0 ml sodium azide +1.0 ml DMSO); AS is the absorbance of sample group (1.0 ml glucose +1.0 ml bovine serum albumin +1.0 ml sodium azide +1.0 ml target compound solution or Aminoguanidine hydrochloride solution); ASB is the absorbance of sample blank group (1.0 ml PBS +1.0 ml bovine serum albumin +1.0 ml sodium azide +1.0 ml target compound solution or Aminoguanidine hydrochloride solution).

IC50 [µM] | SMILES
> 1000 | COc1ccc(-c2cc3ccc(O)cc3oc2=O)cc1 [Compound 24, 7-Hydroxy-3-(4-methoxyphenyl)-coumarin]
> 1000 | O=c1oc2ccccc2cc1-c1ccc(O)cc1 [Compound 6, 3-(4-Hydroxyphenyl)-coumarin]

SMILES | IC50 [µM]
COc1ccc(-c2cc3cccc(O)c3oc2=O)cc1 [Compound 22, 8-Hydroxy-3-(4-methoxyphenyl)-coumarin] | 23.1 ± 0.82

Tested on: not given
Experiment: not given
Settings: not given

SMILES | melting point [°C]
Cc1ccc(C)c(-c2cc3ccc(O)c(O)c3oc2=O)c1 [Compound 33, 7,8-Dihydroxy-3-(2,5-dimethylphenyl)-coumarin] | 190.3 to 190.5
